Patent US10206909B2, “3-(1H-pyrrolo[2,3-B]pyridin-2-yl)-1H-pyrazolo[4,3-B]pyridines and therapeutic uses thereof” (Samumed, LLC, priority 2015, dated 2019)

Tested on: primary human fibroblasts derived from IPF patients (LL29 cells)
Experiment: Inhibition of the fibrotic process: αSMA staining in TGF-β1 treated fibroblasts
Assay type: cell-based
Details: Fibroblast; for EC50: 96 h, LL29 cells, TGF-β1 20 ng/mL, 4 days, % αSMA positive cells; for inhibition at 10 µM: given where EC50 >10 μM, LL29, αSMA, read-out: percent inhibition at 10 μM
Source text: Representative compounds were screened using primary human fibroblasts (derived from IPF patients) treated with TGF-β1 to determine their ability to inhibit the fibrotic process.
Human Fibroblast Cell Culture: Primary human fibroblasts derived from IPF patients (LL29 cells) [^1Xiaoqiu Liu, et. al., “Fibrotic Lung Fibroblasts Show Blunted Inhibition by cAMP Due to Deficient cAMP Response Element-Binding Protein Phosphorylation”, Journal of Pharmacology and Experimental Therapeutics (2005), 315(2), 678-687; ^2Watts, K. L., et. al., “RhoA signaling modulates cyclin D1 expression in human lung fibroblasts; implications for idiopathic pulmonary fibrosis”, Respiratory Research (2006), 7(1), 88] were obtained from American Type Culture Collection (ATCC) and expanded in F12 medium supplemented with 15% Fetal Bovine Serum and Penicillin/Streptomycin.
Compound Screening: Each compound was dissolved in DMSO as a 10 mM stock and used to prepare compound source plates. Serial dilution (1:2, 11-point dose-response curves from 10 μM to […]) and compound transfer was performed using the ECHO 550 (Labcyte, Sunnyvale, Calif.) into 384-well clear bottom assay plates (Greiner Bio-One) with appropriate DMSO backfill for a final DMSO concentration of 0.1%. LL29 cells are plated at 1,500 cells/well in 80 μL/well F12 medium supplemented with 1% Fetal Bovine Serum. One hour after addition of the cells, TGF-β1 (Peprotech; 20 ng/mL) was added to the plates to induce fibrosis (ref. 1 and 2 above). Wells treated with TGF-β1 and containing DMSO were used as controls. Cells were incubated at 37° C. and 5% CO2 for 4 days. Following incubation for 4 days, SYTOX green nucleic acid stain (Life Technologies [Thermo Fisher Scientific]) was added to the wells at a final concentration of 1 μM and incubated at room temperature for 30 min. Cells were then fixed using 4% formaldehyde (Electron Microscopy Sciences), washed 3 times with PBS followed by blocking and permeabilization using 3% Bovine Serum Albumin (BSA; Sigma) and 0.3% Triton X-100 (Sigma) in PBS. Cells were then stained with antibody specific to α-smooth muscle actin (αSMA; Abcam) (ref. 1 and 2 above) in 3% Bovine Serum Albumin (BSA; Sigma) and 0.3% Triton X-100 (Sigma) in PBS, and incubated overnight at 4° C. Cells were then washed 3 times with PBS, followed by incubation with Alexa Flor-647 conjugated secondary antibody (Life Technologies [Thermo Fisher Scientific]) and DAPI at room temperature for 1 hour. Cells were then washed 3 times with PBS and plates were sealed for imaging. αSMA staining was imaged by excitation at 630 nm and emission at 665 nm and quantified using the Compartmental Analysis program on the CellInsight CX5 (Thermo Scientific). Dead or apoptotic cells were excluded from analysis based on positive SYTOX green staining. % of total cells positive for αSMA were counted in each well and normalized to the average of 11 wells treated with TGF-β1 on the same plate using Dotmatics' Studies Software. The normalized averages (fold change over untreated) of 3 replicate wells for each compound concentration were used to create dose-responses curves and EC50 values were calculated using non-linear regression curve fit in the Dotmatics' Studies Software. For EC50 of >10 μM, the percent inhibition at 10 μM is provided.

SMILES | EC50 | inhibition at 10 µM
O=C(Nc1cncc(-c2ccc3[nH]nc(-c4cc5cccnc5[nH]4)c3n2)c1)C1CCCCC1 [Compound 275, N-(5-(3-(1H-Pyrrolo[2,3-b]pyridin-2-yl)-1H-pyrazolo[4,3-b]pyridin-5-yl)pyridin-3-yl)cyclohexanecarboxamide] | > 10000 nM | 0%
c1csc(-c2ccnc3[nH]c(-c4n[nH]c5ccc(-c6cncc(OC7CCCCC7)c6)nc45)cc23)c1 [Compound 703, 5-(5-(Cyclohexyloxy)pyridin-3-yl)-3-(4-(thiophen-2-yl)-1H-pyrrolo[2,3-b]pyridin-2-yl)-1H-pyrazolo[4,3-b]pyridine] | 1620 nM | 
Fc1ccccc1-c1ccnc2[nH]c(-c3n[nH]c4ccc(-c5cncc(CNCc6ccccc6)c5)nc34)cc12 [Compound 80, N-Benzyl-1-(5-(3-(4-(2-fluorophenyl)-1H-pyrrolo[2,3-b]pyridin-2-yl)-1H-pyrazolo[4,3-b]pyridin-5-yl)pyridin-3-yl)methanamine] | 1190 nM | 
Fc1ccccc1-c1ccnc2[nH]c(-c3n[nH]c4ccc(-c5ccccn5)nc34)cc12 [Compound 84, 3-(4-(2-Fluorophenyl)-1H-pyrrolo[2,3-b]pyridin-2-yl)-5-(pyridin-2-yl)-1H-pyrazolo[4,3-b]pyridine] | > 10000 nM | 0%
c1csc(-c2ccnc3[nH]c(-c4n[nH]c5ccc(-c6cncnc6)nc45)cc23)c1 [Compound 363, 5-(Pyrimidin-5-yl)-3-(4-(thiophen-2-yl)-1H-pyrrolo[2,3-b]pyridin-2-yl)-1H-pyrazolo[4,3-b]pyridine] | 546 nM | 
Oc1cncc(-c2ccc3[nH]nc(-c4cc5c(-c6ccc(F)cc6)ccnc5[nH]4)c3n2)c1 [Compound 533, 5-(3-(4-(4-Fluorophenyl)-1H-pyrrolo[2,3-b]pyridin-2-yl)-1H-pyrazolo[4,3-b]pyridin-5-yl)pyridin-3-ol] | > 10000 nM | 43%
c1cc(N2CCCCC2)c2cc(-c3n[nH]c4ccc(C5CCNCC5)nc34)[nH]c2n1 [Compound 601, 3-(4-(Piperidin-1-yl)-1H-pyrrolo[2,3-b]pyridin-2-yl)-5-(piperidin-4-yl)-1H-pyrazolo[4,3-b]pyridine] | > 10000 nM | 20.1%
O=C(Nc1cncc(-c2ccc3[nH]nc(-c4cc5c(-c6ccccc6F)ccnc5[nH]4)c3n2)c1)C1CC1 [Compound 76, N-(5-(3-(4-(2-Fluorophenyl)-1H-pyrrolo[2,3-b]pyridin-2-yl)-1H-pyrazolo [4,3-b]pyridin-5-yl)pyridin-3-yl)cyclopropanecarboxamide] | 5260 nM | 
Cn1cc(-c2ccc3[nH]nc(-c4cc5cccnc5[nH]4)c3n2)cn1 [Compound 652, 5-(1-Methyl-1H-pyrazol-4-yl)-3-(1H-pyrrolo[2,3-b]pyridin-2-yl)-1H-pyrazolo[4,3-b]pyridine] | 1210 nM | 
Fc1cccc(-c2ccnc3[nH]c(-c4n[nH]c5ccc(-c6cccnc6)nc45)cc23)c1 [Compound 4, 3-(4-(3-Fluorophenyl)-1H-pyrrolo[2,3-b]pyridin-2-yl)-5-(pyridin-3-yl)-1H-pyrazolo[4,3-b]pyridine] | 144 nM | 
c1cncc(-c2ccnc3[nH]c(-c4n[nH]c5ccc(-c6ccncc6)nc45)cc23)c1 [Compound 102, 3-(4-(Pyridin-3-yl)-1H-pyrrolo[2,3-b]pyridin-2-yl)-5-(pyridin-4-yl)-1H-pyrazolo[4,3-b]pyridine] | > 10000 nM | 0%
Cc1ccncc1-c1ccc2[nH]nc(-c3cc4c(-c5ccc(F)cc5)ccnc4[nH]3)c2n1 [Compound 33, 3-(4-(4-Fluorophenyl)-1H-pyrrolo[2,3-b]pyridin-2-yl)-5-(4-methylpyridin-3-yl)-1H-pyrazolo[4,3-b]pyridine] | > 10000 nM | 2.9%
c1cc(N2CCCCC2)c2cc(-c3n[nH]c4ccc(-c5cncc(CN6CCCCC6)c5)nc34)[nH]c2n1 [Compound 183, 3-(4-(Piperidin-1-yl)-1H-pyrrolo[2,3-b]pyridin-2-yl)-5-(5-(piperidin-1-ylmethyl)pyridin-3-yl)-1H-pyrazolo[4,3-b]pyridine] | > 10000 nM | 0%
